Values joined by “and” are separate entries in the source; they are usually repeats but may differ in a detail not shown here. Equal values may be shown once. Marks after values point to notes of the source that are not given here.
System: Fertilized broiler eggs (Cobb 500)
Assay: In ovo feeding of NR into yolk or albumen: hatched chick body and pectoralis major morphometrics (Example VI)
Format: in vivo, chicken
Conditions: hatched chicks
Method: Fertilized broiler eggs (N=156; Cobb 500; Cobb-Vantress, Siloam Springs, Ark.) with an average weight of 70.3 g were transported in coolers to the Kansas State University Muscle Biology Laboratory (Manhattan, Kans.). Upon arrival, egg weights were recorded, eggs were ordered by weight, and within each 4 egg strata, eggs were randomly assigned to treatments within a 2×2 factorial arrangement. Factor 1 was NR treatment with eggs receiving 0 or 250 mM NR (ChromaDex, Los Angeles, Calif.). Factor 2 was injection location, with treatments injected into either the yolk or albumen. After treatment assignment, eggs were positioned with equal treatment representation onto trays and placed in an incubator (Sportsman 1502; GQF Manufacturing Company Inc., Savannah, Ga.) set to operate at a temperature of 37° C. and a relative humidity of 40±2% for the first 18 d of incubation. The incubator rotated hourly to reposition eggs, and trays were rotated daily throughout the incubator to account for variation in temperature and humidity. Tray weights were recorded each day to determine egg weight loss percentage with a target weight loss of 0.67% per day.
At d 10 of incubation, NR with the equivalent weight of 250 mM was added to 0.9% sterile saline and covered with foil to prevent exposure to light. Sets of 20 eggs representing equal treatment numbers were removed from the incubator, candled to determine location of the yolk and albumen, and the injection site was cleaned with 70% ethanol. Eggs were turned at a 90° angle and a 2.54-cm, 20-guage hypodermic needle was used to create an opening in the shell at the proper injection site. The needle was inserted approximately 1 cm into injection site and 100 μl of the 250 mM NR solution or 0.9% saline solution was injected into the egg. A 1-cm^2 portion of medical tape (Nexcare; 3M, Maplewood, Minn.) was positioned over the injection location and eggs were returned to the incubator.
On d 18 of incubation, the relative humidity of the incubator was increased to 60±2% and eggs were placed into hatching boxes at the bottom of the incubator. As chicks began to hatch, they were removed from the incubator, marked for treatment, and relocated to a box positioned underneath a heat lamp. Approximately 12 to 24 h after hatch, chicks were euthanized by prolonged exposure to CO2 gas and decapitation. Chick weights were recorded, and digital calipers (Traceable Digital Calipers; Fisher Scientific, Pittsburg, Pa.) were utilized to measure crown to rump length, head width, head length. Head and chest circumference were also collected by wrapping a string around the designated area and determining the length against a ruler.
Chick carcasses were sprayed with 70% ethanol and the skin and feathers were pulled back to reveal the pectoralis major (PM) muscles. Prior to PM muscles removal, chest width and length were measured using digital calipers. The left and right PM muscles were removed, careful to not remove the pectoralis minor muscles. The left PM was weighed and dimensions were collected using digital calipers, including length, width, and depth. This muscle was positioned onto a tongue depressor and placed into a −80° C. freezer, where it was stored until it was used for cryosectioning. The heart and liver were also removed, weighed, and discarded.

[1] = 250 mM NR, 100 μl into albumen d 10
[2] = 250 mM NR, 100 μl into yolk d 10

NC(=O)c1ccc[n+]([C@@H]2O[C@H](CO)[C@@H](O)[C@H]2O)c1 [Nicotinamide riboside, nicotinamide riboside]
Increase of PM weight (250 mM NR into the yolk sac): 38% | Increase of PM length (250 mM NR into the yolk sac, listed as NR): 22% and 21% | Body weight [1]: 43.19 g | Chest length [1]: 21.98 mm | Chest width [1]: 16.57 mm | Crown-rump length [1]: 96.14 mm | Head circumference [1]: 32.14 mm | Head length [1]: 21.29 mm | Head width [1]: 15.56 mm | Heart weight [1]: 0.35 g | Liver weight [1]: 1.05 g | Pectoralis major depth [1]: 2.43 mm | Pectoralis major length [1]: 18.68^b mm | Pectoralis major weight [1]: 0.14^a g | Pectoralis major width [1]: 4.81 mm | Body weight [2]: 44.02 g | Chest length [2]: 22.68 mm | Chest width [2]: 17.69 mm | Crown-rump length [2]: 89.36 mm | Head circumference [2]: 31.49 mm | Head length [2]: 21.73 mm | Head width [2]: 15.45 mm | Heart weight [2]: 0.36 g | Liver weight [2]: 1.11 g | Pectoralis major depth [2]: 2.65 mm | Pectoralis major length [2]: 20.74^c mm | Pectoralis major weight [2]: 0.18^b g | Pectoralis major width [2]: 5.21 mm | Increase of PM width (250 mM NR, regardless of injection location): 9% | Increase of PM depth (250 mM NR, regardless of injection location, listed as NR): 11% and 10%

From patent US11571413B2, “Nicotinamide riboside treatments of domesticated meat animals” (Kansas State University Research Foundation, priority 2017, dated 2023)
